Data reported in patent US20250059182A1, “SOS1 INHIBITORS” (Mirati Therapeutics, Inc., priority 2021, published 2025).
Where a name gives a salt, the structure may show the parent alone. Read-outs that look alike come from different tables or passages of the source.

What was measured:
[1] = target: T1, recombinant human SOS1 polypeptide (amino acids 560-1049) (Homo sapiens, UniProt Q07889); assay: HTRF displacement assay: inhibition of labeled tracer binding to SOS1
T1 construct: corresponding to amino acids 560-1049, expressed in E. Coli; made in house; host or cells: E. coli
T1 sequence (Q07889 560-1049): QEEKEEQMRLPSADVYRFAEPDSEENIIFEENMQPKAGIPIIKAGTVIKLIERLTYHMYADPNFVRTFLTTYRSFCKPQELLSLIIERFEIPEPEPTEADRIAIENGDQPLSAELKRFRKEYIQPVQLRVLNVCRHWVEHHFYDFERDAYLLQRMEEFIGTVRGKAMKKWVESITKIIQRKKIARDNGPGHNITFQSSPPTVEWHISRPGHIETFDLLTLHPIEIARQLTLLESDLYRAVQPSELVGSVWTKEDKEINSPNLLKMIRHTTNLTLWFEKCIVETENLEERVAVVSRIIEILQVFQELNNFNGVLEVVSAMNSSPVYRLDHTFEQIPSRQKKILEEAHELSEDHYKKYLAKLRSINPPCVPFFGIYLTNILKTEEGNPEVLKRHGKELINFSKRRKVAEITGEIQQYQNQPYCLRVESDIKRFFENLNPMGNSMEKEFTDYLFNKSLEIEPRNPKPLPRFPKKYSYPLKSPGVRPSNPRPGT

pERK in MKN1 cells = assay: pERK inhibition, In-Cell Western (LI-COR Odyssey), MKN1 cells; assay type: cell-based
In short: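 IC50 was fitted from % pERK inhibition, calculated as the GAPDH-normalised pERK signal of each well divided by the vehicle mean. Signal was imaged at 700 and 800 nm after fixation, methanol permeabilisation and dual antibody staining. Before fixation, MKN1 cells had received compound for about 0.5–1 h at 37 °C, top concentration 10 µM, nine 3-fold dilutions.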

[2] = Table A, Morrison equation for competitive binding
[3] = Homo sapiens, MKN-1, Table B, MKN1 or H358 cells (table does not say which), 0.5-1 hour incubation, read-out: IC50 (nM), pERK inhibition
[4] = Table A1, Morrison equation for competitive binding
[5] = Homo sapiens, MKN-1, read-out: IC50 (nM), pERK inhibition
[6] = Homo sapiens, MKN-1, Table B1, MKN1 or H358 cells (table does not say which), 0.5-1 hour incubation, read-out: IC50 (nM), pERK inhibition

For Cc1c(C#N)cccc1[C@@H](C)Nc1nnc(C)c2cc(F)c(N3C[C@@H]4C[C@H]3CN4C)cc12 [Example 4-21, 3-((R)-1-((6-fluoro-4-methyl-7-((1S,4S)-5-methyl-2,5-diazabicyclo[2.2.1]heptan-2-yl)phthalazin-1-yl)amino)ethyl)-2-methylbenzonitrile], the Ki [1, 2] was 2 nM and the IC50 (pERK in MKN1 cells; Table B, MKN1 or H358 cells (table does not say which), 0.5-1 hour incubation, read-out: IC50 (nM), pERK inhibition) was 16 nM.
Work on Cc1c(C#N)cccc1[C@@H](C)Nc1nnc(C)c2cnc(-c3ccc(CN(C)C)cc3)cc12 [Example 3-1, (R)-3-(1-((7-(4-((dimethylamino)methyl)phenyl)-4-methylpyrido[3,4-d]pyridazin-1-yl)amino)ethyl)-2-methylbenzonitrile] yielded a Ki [1, 2] of 6.11 nM and an IC50 (pERK in MKN1 cells; [3]) of 192 nM.
For Cc1c(C#N)cccc1[C@@H](C)Nc1nnc(C)c2cnc(N(C)[C@@H]3CCN(C)C3)cc12 [Example 1-6, 2-methyl-3-((R)-1-((4-methyl-7-(methyl((R)-1-methylpyrrolidin-3-yl)amino)pyrido[3,4-d]pyridazin-1-yl)amino)ethyl)benzonitrile], the Ki [1, 2] was 1.56 nM and the IC50 (pERK in MKN1 cells; [3]) was 41.6 nM.
Work on Cc1c(C#N)cccc1[C@@H](C)Nc1nnc(C)c2cnc(N3CC[C@H](NS(C)(=O)=O)C3)cc12 [Example 1-50, N-((S)-1-(1-(((R)-1-(3-cyano-2-methylphenyl)ethyl)amino)-4-methylpyrido[3,4-d]pyridazin-7-yl)pyrrolidin-3-yl)methanesulfonamide] yielded a Ki [1, 2] of 2.07 nM and an IC50 (pERK in MKN1 cells; [3]) of 602 nM.
Cc1c(C#N)cccc1[C@@H](C)Nc1nnc(C)c2cc(F)c(N3CCC3)cc12 [Example P-223, (R)-3-(1-((7-(azetidin-1-yl)-6-fluoro-4-methylphthalazin-1-yl)amino)ethyl)-2-methylbenzonitrile formic acid salt] showed a Ki [1, 4] of 9.3 nM and an IC50 (pERK in MKN1 cells; [5]) of 141 nM.
For COCCN1CC2(CCN2c2cc3c(N[C@H](C)c4cccc(C#N)c4C)nnc(C)c3cn2)C1 [Example P-217, (R)-3-(1-((7-(6-(2-methoxyethyl)-1,6-diazaspiro[3.3]heptan-1-yl)-4-methylpyrido[3,4-d]pyridazin-1-yl)amino)ethyl)-2-methylbenzonitrile formic acid salt], the Ki [1, 4] was 0.762 nM and the IC50 (pERK in MKN1 cells; [5]) was 43.1 nM.
Cc1c(C#N)cccc1[C@@H](C)Nc1nnc(C)c2cnc(N3CCC34CN(C)C4)cc12 [Example 1-19, (R)-2-methyl-3-(1-((4-methyl-7-(6-methyl-1,6-diazaspiro[3.3]heptan-1-yl)pyrido[3,4-d]pyridazin-1-yl)amino)ethyl)benzonitrile] gave a Ki [1, 2] of 0.601 nM and an IC50 (pERK in MKN1 cells; [3]) of 32.2 nM.
Work on Cc1c(C#N)cccc1[C@@H](C)Nc1nnc(CN(C)C)c2cnc(N3CC4(COC4)C3)cc12 [Example 6-1, (R)-3-(1-((4-((dimethylamino)methyl)-7-(2-oxa-6-azaspiro[3.3]heptan-6-yl)pyrido[3,4-d]pyridazin-1-yl)amino)ethyl)-2-methylbenzonitrile] yielded a Ki [1, 2] of 18.3 nM and an IC50 (pERK in MKN1 cells; [3]) of 171 nM.
COC1(c2cc3c(N[C@H](C)c4cccc(C#N)c4C)nnc(C)c3cc2F)CCN(C)CC1 [Example P-153, (R)-3-(1-((6-fluoro-7-(4-methoxy-1-methylpiperidin-4-yl)-4-methylphthalazin-1-yl)amino)ethyl)-2-methylbenzonitrile] was tested, and the Ki [1, 4] was 16.6 nM and the IC50 (pERK in MKN1 cells; [6]) was 909 nM.
For Cc1c(C#N)cccc1[C@@H](C)Nc1nnc(C)c2cnc(N3CCN(C)C[C@H]3C)cc12 [Example 1-16, 3-((R)-1-((7-((R)-2,4-dimethylpiperazin-1-yl)-4-methylpyrido[3,4-d]pyridazin-1-yl)amino)ethyl)-2-methylbenzonitrile], the Ki [1, 2] was 0.526 nM and the IC50 (pERK in MKN1 cells; [3]) was 34.5 nM.
Cc1nnc(N[C@H](C)c2cccc(C(F)(F)F)c2F)c2cc(N3CCN(C)CC3)c(C#N)cc12 [Example 6-17, (R)-1-((1-(2-fluoro-3-(trifluoromethyl)phenyl)ethyl)amino)-4-methyl-7-(4-methylpiperazin-1-yl)phthalazine-6-carbonitrile] gave a Ki [1, 2] of 2.29 nM and an IC50 (pERK in MKN1 cells; [3]) of 139 nM.
Cc1c(C#N)cccc1[C@@H](C)Nc1nnc(N2CC(N)C2)c2cnc(N3C[C@H]4C[C@@H]3CO4)cc12 [Example P-177, 3-((R)-1-((4-(3-aminoazetidin-1-yl)-7-((1R,4R)-2-oxa-5-azabicyclo[2.2.1]heptan-5-yl)pyrido[3,4-d]pyridazin-1-yl)amino)ethyl)-2-methylbenzonitrile] gave a Ki [1, 4] of 0.541 nM and an IC50 (pERK in MKN1 cells; [6]) of 451 nM.
With Cc1c(C#N)cccc1[C@@H](C)Nc1nnc(C)c2cc(Cl)c(N3CCS(=O)(=O)CC3)cc12 [Example P-197, (R)-3-(1-((6-chloro-7-(1,1-dioxidothiomorpholino)-4-methylphthalazin-1-yl)amino)ethyl)-2-methylbenzonitrile] the Ki [1, 4] was 8.97 nM and the IC50 (pERK in MKN1 cells; [6]) was 204 nM.
In the case of Cc1nnc(N[C@H](C)c2cccc(C(F)(F)F)c2F)c2cc(N(C)[C@H]3CCN(C(C)C)C3)ncc12 [Example 1-77, N^1-((R)-1-(2-fluoro-3-(trifluoromethyl)phenyl)ethyl)-N^7-((S)-1-isopropylpyrrolidin-3-yl)-N^7,4-dimethylpyrido[3,4-d]pyridazine-1,7-diamine], the Ki [1, 2] is reported as 0.647 nM and the IC50 (pERK in MKN1 cells; [3]) is reported as 121 nM.
Work on Cc1nnc(N[C@H](C)c2cccc(C(C)(F)F)c2F)c2cc(N(C)[C@H]3CCN(C)C3)ncc12 [Example P-200, N1-((R)-1-(3-(1,1-difluoroethyl)-2-fluorophenyl)ethyl)-N7,4-dimethyl-N7-((S)-1-methylpyrrolidin-3-yl)pyrido[3,4-d]pyridazine-1,7-diamine] yielded a Ki [1, 4] of 0.517 nM and an IC50 (pERK in MKN1 cells; [6]) of 6.77 nM.
Cc1nnc(N[C@H](C)c2cc(N)cc(C(F)(F)F)c2F)c2cc(N3CC(C)(O)C3)ncc12 [Example 1-93, (R)-1-(1-((1-(5-amino-2-fluoro-3-(trifluoromethyl)phenyl)ethyl)amino)-4-methylpyrido[3,4-d]pyridazin-7-yl)-3-methylazetidin-3-ol] showed a Ki [1, 2] of 0.361 nM and an IC50 (pERK in MKN1 cells; [3]) of 50.5 nM.
Cc1c(C#N)cccc1[C@@H](C)Nc1nnc(N2CC[C@@H](N)C2)c2cnc(N3C[C@H]4C[C@@H]3CO4)cc12 [Example 5-1, 3-((R)-1-((4-((R)-3-aminopyrrolidin-1-yl)-7-((1R, 4R)-2-oxa-5-azabicyclo[2.2.1]heptan-5-yl)pyrido[3,4-d]pyridazin-1-yl)amino)ethyl)-2-methylbenzonitrile] gave a Ki [1, 2] of 0.505 nM and an IC50 (pERK in MKN1 cells; [3]) of 1320 nM.
For Cc1nnc(N[C@H](C)c2cccc(C(F)(F)F)c2F)c2cc(N3CCC34CN(C)C4)c(F)cc12 [Example 4-5, (R)-6-fluoro-N-(1-(2-fluoro-3-(trifluoromethyl)phenyl)ethyl)-4-methyl-7-(6-methyl-1,6-diazaspiro[3.3]heptan-1-yl)phthalazin-1-amine], the Ki [1, 2] was 0.585 nM and the IC50 (pERK in MKN1 cells; [3]) was 103 nM.
CCN1CC[C@@H](N(C)c2cc3c(N[C@H](C)c4cccc(C#N)c4C)nnc(C)c3cn2)C1 [Example 1-88, 3-((R)-1-((7-(((R)-1-ethylpyrrolidin-3-yl)(methyl)amino)-4-methylpyrido[3,4-d]pyridazin-1-yl)amino)ethyl)-2-methylbenzonitrile] gave a Ki [1, 2] of 1.37 nM and an IC50 (pERK in MKN1 cells; [3]) of 35.5 nM.
Cc1c(C#N)cccc1[C@@H](C)Nc1nnc(N2CC(N(C)C)C2)c2cnc(N3C[C@H]4C[C@@H]3CO4)cc12 [Example P-180, 3-((R)-1-((7-((1R,4R)-2-oxa-5-azabicyclo[2.2.1]heptan-5-yl)-4-(3-(dimethylamino)azetidin-1-yl)pyrido[3,4-d]pyridazin-1-yl)amino)ethyl)-2-methylbenzonitrile] showed a Ki [1, 4] of 0.491 nM and an IC50 (pERK in MKN1 cells; [6]) of 53.4 nM.
In the case of Cc1nnc(N[C@H](C)c2cccc(C(F)(F)F)c2F)c2cc(N(C)[C@H]3CCNC3)ncc12 [Example 1-65, N^1-((R)-1-(2-fluoro-3-(trifluoromethyl)phenyl)ethyl)-N^7,4-dimethyl-N^7-((S)-pyrrolidin-3-yl)pyrido[3,4-d]pyridazine-1,7-diamine], the Ki [1, 2] is reported as 0.505 nM and the IC50 (pERK in MKN1 cells; [3]) is reported as 49.7 nM.
Molecule Cc1nnc(N[C@H](C)c2cccc(C(F)F)c2F)c2cc(N3CCC34CN(C)C4)c(F)cc12 [Example P-234, (R)-N-(1-(3-(difluoromethyl)-2-fluorophenyl)ethyl)-6-fluoro-4-methyl-7-(6-methyl-1,6-diazaspiro[3.3]heptan-1-yl)phthalazin-1-amine] has a Ki [1, 4] of 0.416 nM and an IC50 (pERK in MKN1 cells; [6]) of 50.2 nM.
Molecule Cc1nnc(N[C@H](C)c2cccc(C(F)F)c2F)c2cc(-c3ccc(=O)n(C)c3)ncc12 [Example P-239, (R)-5-(1-((1-(3-(difluoromethyl)-2-fluorophenyl)ethyl)amino)-4-methylpyrido[3,4-d]pyridazin-7-yl)-1-methylpyridin-2(1H)-one] has a Ki [1, 4] of 15.1 nM and an IC50 (pERK in MKN1 cells; [6]) of 606 nM.
Work on CCN1CCN(c2cc3c(N[C@H](C)c4cccc(C#N)c4C)nnc(C)c3cn2)CC1=O [Example 1-44, (R)-3-(1-((7-(4-ethyl-3-oxopiperazin-1-yl)-4-methylpyrido[3,4-d]pyridazin-1-yl)amino)ethyl)-2-methylbenzonitrile] yielded a Ki [1, 2] of 1.9 nM and an IC50 (pERK in MKN1 cells; [3]) of 44.6 nM.
